The first test deals with OVCAR-3. The experiment in a line: OVCAR3 CTG assay. The class given is cell-based. Conditions: CellTiter-Glo, 6 days incubation. The text has this:
Example B2: OVCAR3 CTG Assay
• a) Preparation of complete medium: Added FBS and appropriate additives according to the information sheet provided by the vendor. Mix gently. • b) Checked the cell name and complete medium and passage number marked on the flask. For adherent cell lines, refer to c to k. For suspension cell lines, refer to g to k. • c) Removed and discarded culture medium using a vacuum pump. • d) Briefly rinsed the cell layer with 0.25% (w/v) Trypsin-0.038% (w/v) EDTA solution to remove all traces of serum that contains trypsin inhibitor. • e) Added 3.0 ml of Trypsin-EDTA solution to flask and observed cells under an inverted microscope until cell layer is dispersed. • f) Added 9.0 ml of complete growth medium and aspirated cells by gently pipetting. • g) Transfered the cell suspension to a centrifuge tube and centrifuged at 1000 rpm for 4 minutes. • h) Discarded the supernatant using a vacuum pump. • i) Added appropriate volume of complete medium. Suspended the cell pellet by gently pipetting. • j) Counted the cell numbers with Vi-cell XR and adjusted cells to appropriate density. • k) Added 190 μL of cell suspension to 96-well opaque-walled clear bottom plates according to the planned plate layout and placed the plates in the CO2 incubator overnight.
2) Compound Stock Preparation:
• a) Plate preparation of testing articles:
The compounds were dissolved in DMSO to prepare 10 mM stock solution. The start working concentration (2 mM) was prepared with DMSO.
b) Staurosporine Plate Preparation:
0.4 mM Staurosporine was prepared in DMSO at working concentration.
The 20× compound containing medium was prepared according to the plate map. 10 μL of 20× compound containing medium was added into each well of the assay plates. Centrifuged at 1000 rpm for 1 minute. The total dilution was 200-fold.
3) Cells were Incubated with the Compounds for 6 Days at 5% CO2, 37° C.
Assay Measurement for CTG Assay
1) Preparation of Reagents
• a) Thawed the CellTiter-Glo buffer and equilibrated to room temperature prior to use. • b) Equilibrated the lyophilized CellTiter-Glo substrate to room temperature prior to use. • c) Transfered the appropriate volume of CellTiter-Glo buffer into the amber bottle containing CellTiter-Glo substrate to reconstitute the lyophilized enzyme/substrate mixture. This formed the CellTiter-Glo reagent. • d) Mixed by gently vortexing, swirling or by inverting the contents to obtain a homogeneous solution. The CellTiter-Glo substrate went into solution easily in less than one minute.
• a) Observed the cell morphology under an inverted microscope after corresponding treatment. • b) Equilibrated the plate and its contents to room temperature for approximately 30 minutes. • c) Added 100 μL of CellTiter-Glo reagent to the assay plate by Multidrop Combi instrument. • d) Mixed contents for 10 minutes on an orbital shaker to induce cell lysis. • e) Allowed the plate to incubate at room temperature for 10 minutes to stabilize luminescent signal. • f) Pasted the clear bottom with white back seal and record luminescence with Envision. The settings should be: Luminescence, measurement time 0.1 s.
A general note: Cellular ATP, detected with luciferase, serves as a proxy for viable cell number.
One may read the IC50 as the concentration that gives 50% inhibition. The low end stands for greater potency, the high end for weaker potency. Turning to `Cc1cc2nc(n1)NC1CC(C1)OCC1(C(F)(F)F)CCN(CC1)c1cc(NS(=O)(=O)CCO)ccc1C(=O)N2` [EX54], the half-inhibitory concentration (IC50) lay in the range of 10 to 100 nM.

Still in this test, the particulars now being: Homo sapiens, OVCAR-3, 144 h; CellTiter-Glo, 6 days incubation.
The compound `O=C1Nc2cccc(n2)N2CCO[C@@H](COCC3(C(F)(F)F)CCN(CC3)c3cc(NS(=O)(=O)CCO)ncc31)C2` (stereo in doubt) [EX92-B] had an IC50 of less than 10 nM.

On to `Cc1cc2nc(n1)N1CCO[C@@H](COCC3(C(F)(F)F)CCN(CC3)c3cc(NS(=O)(=O)CCO)ccc3C(=O)N2)C1` (stereo in doubt) [EX96-B], for which the IC50 lay in the range of 10 to 100 nM.

`CC12CCN(CC1)c1cc(S(=O)(=O)NC(C)(C)C)ccc1C(=O)Nc1cccc(n1)OCCCOC2` [EX07] had an IC50 of 10 to 100 nM.

Consider `CC12CCN(CC1)c1cc(S(=O)(=O)NC(C)(C)C)ccc1C(=O)Nc1ccc(=O)n(n1)CCCCOC2` [EX14], for which the IC50 lay within 10 to 100 nM.

As for `Cc1cc2nc(n1)NCC(F)(F)COCC1(C)CCN(CC1)c1cc(NS(=O)(=O)CCO)ccc1C(=O)N2` [EX28], the IC50 was in the range of 10 to 100 nM.

`Cc1cc2nc(n1)NCCCOCC1(C)CCN(CC1)c1nc(NC(C)(C)CO)ccc1C(=O)N2` [EX29] came in with an IC50 of 100 to 1000 nM.

As for `Cc1cc2nc(n1)N(C)CCCOCC1(C(F)(F)F)CCN(CC1)c1cc(S(=O)(=O)NC(C)(C)C)ccc1C(=O)N2` [EX30], the IC50 is 10 to 100 nM.

On to `Cc1cc2nc(n1)NC[C@H](C(F)(F)F)COCC1(C)CCN(CC1)c1cc(NS(=O)(=O)CCO)ccc1C(=O)N2` [EX32-A], for which the IC50 is 10 to 100 nM.

The compound `Cc1cc2nc(n1)NC[C@@H](C(F)(F)F)COCC1(C)CCN(CC1)c1cc(NS(=O)(=O)CCO)ccc1C(=O)N2` [EX32-B] had an IC50 of 10 to 100 nM.

`CC12CCN(CC1)c1cc(NS(=O)(=O)CCO)ccc1C(=O)Nc1cc(C(F)(F)F)nc(n1)NCCCOC2` [EX39] yielded an IC50 of 10 to 100 nM.

The compound `Cc1cc2nc(n1)N(C)CCCOCC1(C3CC3)CCN(CC1)c1cc(NS(=O)(=O)CCO)ccc1C(=O)N2` [EX41] registered an IC50 of 100 to 1000 nM.

For the compound `Cc1cc2nc(n1)NCC(C)COCC1(C#N)CCN(CC1)c1cc(NS(=O)(=O)CCO)ccc1C(=O)N2` (stereo not drawn) [EX42], the IC50 lay in the range of 10 to 100 nM.

The compound `Cc1cc2nc(n1)NCC1(CC1)COCC1(C(F)(F)F)CCN(CC1)c1cc(NS(=O)(=O)CCO)ccc1C(=O)N2` [EX43] showed an IC50 of less than 10 nM.

In turn, `[2H]C([2H])([2H])N1CCCOCC2(C(F)(F)F)CCN(CC2)c2cc(NS(=O)(=O)CCO)ccc2C(=O)Nc2cc(C)nc1n2` [EX44] gave an IC50 of 10 to 100 nM.

`CO[C@H]1CNc2nc(C)cc(n2)NC(=O)c2ccc(NS(=O)(=O)CCO)cc2N2CCC(C(F)(F)F)(CC2)COC1` [EX46-A] displayed an IC50 of 10 to 100 nM.

`CO[C@@H]1CNc2nc(C)cc(n2)NC(=O)c2ccc(NS(=O)(=O)CCO)cc2N2CCC(C(F)(F)F)(CC2)COC1` [EX46-B] returned an IC50 of 10 to 100 nM.

On to `[2H]C([2H])([2H])N1CCCCOCC2(C(F)(F)F)CCN(CC2)c2cc(NS(=O)(=O)CCO)ccc2C(=O)Nc2cc(C)nc1n2` [EX47], for which the IC50 is 1000 to 10000 nM.

The compound `O=C1NCCOCC2(C(F)(F)F)CCN(CC2)c2cc(NS(=O)(=O)CCO)ccc2C(=O)Nc2cccc1n2` [EX49] returned an IC50 of 100 to 1000 nM.

Consider `Cc1cc2nc(n1)NC/C=C\COCC1(C(F)(F)F)CCN(CC1)c1cc(NS(=O)(=O)CCO)ccc1C(=O)N2` [EX51], for which the IC50 is 10 to 100 nM.

For the compound `Cc1cc2nc(n1)NC/C=C/COCC1(C(F)(F)F)CCP(=O)(CC1)c1cc(NS(=O)(=O)CCO)ccc1C(=O)N2` [EX52], the IC50 was 1000 to 10000 nM.

On to `Cc1cc2nc(n1)NC1CC(C1)OCC1(C(F)(F)F)CCN(CC1)c1cc(NS(=O)(=O)CCO)ccc1C(=O)N2` [EX53], for which the IC50 fell in the range of 10 to 100 nM.

The compound `CC1CNc2cccc(n2)NC(=O)c2ccc(NS(=O)(=O)CCO)cc2N2CCC(C(F)(F)F)(CC2)COC1` (stereo not drawn) [EX56] registered an IC50 of 10 to 100 nM.

`[2H]C([2H])([2H])N1CCCCCC2(C(F)(F)F)CCN(CC2)c2cc(NS(=O)(=O)CCO)ccc2C(=O)Nc2cccc1n2` [EX60] gave an IC50 of 10 to 100 nM.

In turn, `[2H]C([2H])([2H])N1CCCOCC2(C(F)(F)F)CCN(CC2)c2cc(NS(=O)(=O)CCO)ccc2C(=O)Nc2ccc(F)c1n2` [EX61] registered an IC50 of 10 to 100 nM.

`CN1CCCOCC2(C(F)(F)F)CCN(CC2)c2cc(NS(=O)(=O)CCO)ccc2C(=O)Nc2cccc1n2` [EX62] came in with an IC50 of 10 to 100 nM.

Compound `[2H]C([2H])([2H])N1CCCCC2(C(F)(F)F)CCN(CC2)c2cc(NS(=O)(=O)CCO)ccc2C(=O)Nc2cccc1n2` [EX63] had an IC50 of 100 to 1000 nM.

With `O=C1Nc2ccc(=O)n(n2)CCCCCCC2(C(F)(F)F)CCN(CC2)c2cc(NS(=O)(=O)CCO)ccc21` [EX64], the IC50 was in the range of 10 to 100 nM.

In turn, `O=C1Nc2ccc(=O)n(n2)CCCCCC2(C(F)(F)F)CCN(CC2)c2cc(NS(=O)(=O)CCO)ccc21` [EX65] registered an IC50 of 100 to 1000 nM.

Regarding `O=C1Nc2cccc(n2)NC/C=C\COCC2(C(F)(F)F)CCN(CC2)c2cc(NS(=O)(=O)CCO)ccc21` [EX66], the IC50 lay within 10 to 100 nM.

`O=C1Nc2cccc(n2)NCC2(CC2)COCC2(C(F)(F)F)CCN(CC2)c2cc(NS(=O)(=O)CCO)ccc21` [EX68] yielded an IC50 of 10 to 100 nM.

In the case of `[2H]C([2H])([2H])N1CCCOCC2(C(F)(F)F)CCN(CC2)c2cc(S(=O)(=O)NC(C)(C)C)ccc2C(=O)Nc2cccc1n2` [EX69], the IC50 was in the range of 10 to 100 nM.

Regarding `[2H]C([2H])([2H])N1CCCOCC2(C(F)(F)F)CCN(CC2)c2cc(S(=O)(=O)NCCO)ccc2C(=O)Nc2cccc1n2` [EX70], the IC50 lay in the range of 10 to 100 nM.

As to `O=C1Nc2cccc(n2)N(C2CC2)CCCOCC2(C(F)(F)F)CCN(CC2)c2cc(NS(=O)(=O)CCO)ccc21` [EX71], the IC50 is 10 to 100 nM.

The compound `CN1CCCOCC2(C(F)(F)F)CCN(CC2)c2cc(NS(=O)(=O)CCO)ccc2C(=O)Nc2cncc1n2` [EX75] showed an IC50 of 100 to 1000 nM.

In turn, `C[C@H]1CNc2nc(ccc2F)NC(=O)c2ccc(NS(=O)(=O)CCO)cc2N2CCC(C(F)(F)F)(CC2)COC1` [EX76-A] registered an IC50 of less than 10 nM.

`C[C@@H]1CNc2nc(ccc2F)NC(=O)c2ccc(NS(=O)(=O)CCO)cc2N2CCC(C(F)(F)F)(CC2)COC1` [EX76-B]: the IC50 was 10 to 100 nM.

Turning to `C/C1=C/CNc2cccc(n2)NC(=O)c2ccc(NS(=O)(=O)CCO)cc2N2CCC(C(F)(F)F)(CC2)COC1` [EX77], the IC50 fell in the range of 100 to 1000 nM.

Take `CO[C@@H]1CNc2cccc(n2)NC(=O)c2ccc(NS(=O)(=O)CCO)cc2N2CCC(C(F)(F)F)(CC2)COC1` [EX78-A]: the IC50 lay within 10 to 100 nM.

As for `CO[C@H]1CNc2cccc(n2)NC(=O)c2ccc(NS(=O)(=O)CCO)cc2N2CCC(C(F)(F)F)(CC2)COC1` [EX78-B], the IC50 is less than 10 nM.

Turning to `C[C@@H]1CCCC2(C(F)(F)F)CCN(CC2)c2cc(NS(=O)(=O)CCO)ccc2C(=O)Nc2cccc(n2)NC1` [EX79-A], the IC50 fell in the range of 10 to 100 nM.

For `C[C@H]1CCCC2(C(F)(F)F)CCN(CC2)c2cc(NS(=O)(=O)CCO)ccc2C(=O)Nc2cccc(n2)NC1` [EX79-B], the IC50 was less than 10 nM.

For `CN1CCC2(C(F)(F)F)CCN(CC2)c2cc(NS(=O)(=O)CCO)ccc2C(=O)Nc2cccc(n2)NCC1=O` [EX80], the IC50 is 1000 to 10000 nM.

`O=C1Nc2cccc(n2)N2CCO[C@H](COCC3(C(F)(F)F)CCN(CC3)c3cc(NS(=O)(=O)CCO)ccc31)C2` [EX81-B]: the IC50 was in the range of 10 to 100 nM.

Take `O=C1Nc2cccc(n2)NCCC/C=C/C2(C(F)(F)F)CCN(CC2)c2cc(NS(=O)(=O)CCO)ccc21` [EX83]: the IC50 is 10 to 100 nM.

Regarding `C[C@H]1COCC2(C(F)(F)F)CCN(CC2)c2cc(NS(=O)(=O)CCO)ccc2C(=O)Nc2cccc(n2)CO1` [EX84-A], the half-maximal inhibitory concentration (IC50) fell in the range of 10 to 100 nM.

In turn, `C[C@@H]1COCC2(C(F)(F)F)CCN(CC2)c2cc(NS(=O)(=O)CCO)ccc2C(=O)Nc2cccc(n2)CO1` [EX84-B] displayed an IC50 of 10 to 100 nM.

The compound `C[C@@H]1C/C=C/C2(C(F)(F)F)CCN(CC2)c2cc(NS(=O)(=O)CCO)ccc2C(=O)Nc2cccc(n2)NC1` [EX85-A] yielded an IC50 of 10 to 100 nM.

`C[C@H]1C/C=C/C2(C(F)(F)F)CCN(CC2)c2cc(NS(=O)(=O)CCO)ccc2C(=O)Nc2cccc(n2)NC1` [EX85-B] came in with an IC50 of less than 10 nM.

As for `CN1CCCOCC2(C(F)(F)F)CCN(CC2)c2cc(NS(=O)(=O)CCO)cnc2C(=O)Nc2cccc1n2` [EX86], the IC50 was in the range of 10 to 100 nM.

In the case of `CN1CCCOCC2(C(F)(F)F)CCN(CC2)c2cc(NS(=O)(=O)CCO)ccc2C(=O)Nc2nccc1n2` [EX87], the IC50 fell in the range of 1000 to 10000 nM.

The values are drawn from patent US20250340569A1, “INHIBITORS OF KIF18A AND USES THEREOF” (Insilico Medicine IP Limited, priority 2023, published 2025).
